Source: patent publication US9918915B2, “Personal care compositions providing enhanced cooling sensation” (THE PROCTER & GAMBLE COMPANY, priority 2007, dated 2018)

How the values were obtained:
panelists = assay: Sensory evaluation of cooling sensation after brushing with coolant dentifrice followed by aqueous rinse with or without calcium; type: in vivo, human; set-up: key to Cooling Sensation Score: 0 = no cooling, 60 = intense cooling; 7.5 = definite cooling; conditions: for Cooling Sensation Score: 0-60 scale
Procedure: Sensory evaluation studies of coolant activity were conducted using a methodology patterned after the techniques described in M. C. Meilgaard, et al., Sensory Evaluation Techniques, 4th Ed. (2007). In one study, a panel of 11 trained sensory experts evaluated cooling sensation experienced after brushing with a dentifrice containing coolant(s) followed by rinsing with an aqueous rinse containing a calcium ion source. Panelists brushed teeth with 1.5 grams of a test dentifrice (containing coolant) or control (no coolant) and then expectorated. After brush expectoration, panelists evaluated cooling intensity, assigning a number between 0 (no cooling) to 60 (intense cooling). Panelists then rinsed mouth with 15 ml. of an aqueous rinse (with or without calcium) and expectorated. After rinse expectoration, panelists evaluated cooling intensity according to the same 0 to 60 scale. Evaluations were conducted at 5, 15, 30, 45, 60 minute, etc. time points. At each evaluation, panelists were instructed to breathe in through pursed lips and evaluate overall cooling sensation. In this test, a numerical score of 7.5 indicates meaningful or definite cooling.

human TRPM8 = human TRPM8 (Homo sapiens, UniProt Q7Z2W7); assay: FLIPR intracellular calcium flux (Fluo-4) in HEK cells stably transfected with human TRPM8; conditions: for % Change from G-180 value: pre-treatment with 100 uM test compound + 6.25 uM G-180 vs 6.25 uM G-180 alone, calcium fluorescence; for Average Fluorescence (n = 3): HEK cells with human TRPM8, Fluo-4
Sequence of human TRPM8 (Q7Z2W7 whole entry): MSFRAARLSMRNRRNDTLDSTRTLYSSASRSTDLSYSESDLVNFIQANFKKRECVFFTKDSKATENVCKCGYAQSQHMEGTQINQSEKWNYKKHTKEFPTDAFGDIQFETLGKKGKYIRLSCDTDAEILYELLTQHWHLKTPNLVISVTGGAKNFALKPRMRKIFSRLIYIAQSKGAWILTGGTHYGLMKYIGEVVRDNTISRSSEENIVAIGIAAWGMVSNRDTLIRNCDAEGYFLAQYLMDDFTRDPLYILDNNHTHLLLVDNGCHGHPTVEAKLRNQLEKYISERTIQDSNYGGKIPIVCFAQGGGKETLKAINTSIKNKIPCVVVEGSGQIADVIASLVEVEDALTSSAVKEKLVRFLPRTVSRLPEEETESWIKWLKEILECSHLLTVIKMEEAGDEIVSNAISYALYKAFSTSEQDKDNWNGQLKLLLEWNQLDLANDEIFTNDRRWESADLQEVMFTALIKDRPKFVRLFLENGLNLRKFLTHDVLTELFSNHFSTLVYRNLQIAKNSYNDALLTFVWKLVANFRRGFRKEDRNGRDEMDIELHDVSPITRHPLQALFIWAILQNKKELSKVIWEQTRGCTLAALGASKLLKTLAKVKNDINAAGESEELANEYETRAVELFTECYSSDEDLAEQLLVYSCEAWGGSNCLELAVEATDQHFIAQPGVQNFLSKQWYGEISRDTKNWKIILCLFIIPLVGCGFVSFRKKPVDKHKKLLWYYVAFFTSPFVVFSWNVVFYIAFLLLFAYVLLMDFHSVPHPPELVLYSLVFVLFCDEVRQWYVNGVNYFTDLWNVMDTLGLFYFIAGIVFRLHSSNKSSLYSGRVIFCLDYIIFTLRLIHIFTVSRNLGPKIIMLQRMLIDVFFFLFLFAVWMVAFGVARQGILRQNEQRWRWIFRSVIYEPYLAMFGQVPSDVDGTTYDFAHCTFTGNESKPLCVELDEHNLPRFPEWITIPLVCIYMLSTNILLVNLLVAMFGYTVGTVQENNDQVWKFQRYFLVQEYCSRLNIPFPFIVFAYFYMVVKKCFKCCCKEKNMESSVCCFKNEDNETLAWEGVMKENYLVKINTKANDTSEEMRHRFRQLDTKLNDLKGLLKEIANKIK

[1] = 1500 ppm coolant in paste, rinse Ca+2 0 ppm, 0 min.
[2] = 1500 ppm coolant in paste, rinse Ca+2 0 ppm, 5 min.
[3] = 1500 ppm coolant in paste, rinse Ca+2 0 ppm, 15 min.
[4] = 1500 ppm coolant in paste, rinse Ca+2 0 ppm, 30 min.
[5] = 1500 ppm coolant in paste, rinse Ca+2 0 ppm, 45 min.
[6] = 1500 ppm coolant in paste, rinse Ca+2 0 ppm, 60 min.
[7] = 1000 ppm coolant in paste, rinse Ca+2 0 ppm, 0 min.
[8] = 1000 ppm coolant in paste, rinse Ca+2 0 ppm, 5 min.
[9] = 1000 ppm coolant in paste, rinse Ca+2 0 ppm, 15 min.
[10] = 1000 ppm coolant in paste, rinse Ca+2 0 ppm, 30 min.
[11] = 1000 ppm coolant in paste, rinse Ca+2 0 ppm, 45 min.
[12] = 1000 ppm coolant in paste, rinse Ca+2 0 ppm, 60 min.
[13] = pre-treatment with 100 uM test compound for 30 minutes, then 6.25 uM G-180
[14] = 800 ppm coolant in paste, rinse Ca+2 0 ppm, 0 min.
[15] = 800 ppm coolant in paste, rinse Ca+2 0 ppm, 5 min.
[16] = 800 ppm coolant in paste, rinse Ca+2 0 ppm, 15 min.
[17] = 800 ppm coolant in paste, rinse Ca+2 0 ppm, 30 min.
[18] = 800 ppm coolant in paste, rinse Ca+2 0 ppm, 45 min.
[19] = 800 ppm coolant in paste, rinse Ca+2 0 ppm, 60 min.
[20] = 800 ppm coolant in paste, rinse Ca+2 723 ppm, 0 min.
[21] = 800 ppm coolant in paste, rinse Ca+2 723 ppm, 5 min.
[22] = 800 ppm coolant in paste, rinse Ca+2 723 ppm, 15 min.
[23] = 800 ppm coolant in paste, rinse Ca+2 723 ppm, 30 min.
[24] = 800 ppm coolant in paste, rinse Ca+2 723 ppm, 45 min.
[25] = 800 ppm coolant in paste, rinse Ca+2 723 ppm, 60 min.

CC(C)[C@@H]1CC[C@@H](C)CC12OCC(CO)O2 (some centres unmarked) [MGA, menthone glycerol acetal]
Cooling Sensation Score (panelists; [1]): 16.5 | Cooling Sensation Score (panelists; [2]): 13.6 | Cooling Sensation Score (panelists; [3]): 4.4 | Cooling Sensation Score (panelists; [4]): 0 | Cooling Sensation Score (panelists; [5]): 0 | Cooling Sensation Score (panelists; [6]): 0 | Cooling Sensation Score (panelists; 1500 ppm coolant in paste, rinse Ca+2 723 ppm, 0 min.): 20.7 | Cooling Sensation Score (panelists; 1500 ppm coolant in paste, rinse Ca+2 723 ppm, 5 min.): 18.3 | Cooling Sensation Score (panelists; 1500 ppm coolant in paste, rinse Ca+2 723 ppm, 15 min.): 7.0 | Cooling Sensation Score (panelists; 1500 ppm coolant in paste, rinse Ca+2 723 ppm, 30 min.): 1.4 | Cooling Sensation Score (panelists; 1500 ppm coolant in paste, rinse Ca+2 723 ppm, 45 min.): 0 | Cooling Sensation Score (panelists; 1500 ppm coolant in paste, rinse Ca+2 723 ppm, 60 min.): 0 | Calcium enhancing effect on cooling (panelists; 1500 ppm level of coolant in dentifrice): calcium enhancing effect was also observed | Potentiating effect of calcium ions on cooling intensity and duration (panelists; at the levels of coolant and calcium used): particularly evident

CC1CCC(C(C)C)C(OC(=O)C(C)O)C1 (centres unmarked) [Menthyl Lactate, menthyl lactate]
Cooling Sensation Score (panelists; [7]): 23.0 | Cooling Sensation Score (panelists; [8]): 12.7 | Cooling Sensation Score (panelists; [9]): 2.3 | Cooling Sensation Score (panelists; [10]): 0 | Cooling Sensation Score (panelists; [11]): 0 | Cooling Sensation Score (panelists; [12]): 0 | Cooling Sensation Score (panelists; 1000 ppm coolant in paste, rinse Ca+2 723 ppm, 0 min.): 23.5 | Cooling Sensation Score (panelists; 1000 ppm coolant in paste, rinse Ca+2 723 ppm, 5 min.): 12.4 | Cooling Sensation Score (panelists; 1000 ppm coolant in paste, rinse Ca+2 723 ppm, 15 min.): 2.2 | Cooling Sensation Score (panelists; 1000 ppm coolant in paste, rinse Ca+2 723 ppm, 30 min.): 0 | Cooling Sensation Score (panelists; 1000 ppm coolant in paste, rinse Ca+2 723 ppm, 45 min.): 0 | Cooling Sensation Score (panelists; 1000 ppm coolant in paste, rinse Ca+2 723 ppm, 60 min.): 0

O=P([O-])([O-])OP(=O)([O-])OP(=O)([O-])[O-].[Na+].[Na+].[Na+].[Na+].[Na+] [Penta sodium triphosphate]
% Change from G-180 value (human TRPM8): 0.66% | Average Fluorescence (n = 3) (human TRPM8; [13]): 17628.02

O=P(O)(O)O[C@H]1[C@H](OP(=O)(O)O)[C@@H](OP(=O)(O)O)[C@H](OP(=O)(O)O)[C@@H](OP(=O)(O)O)[C@H]1OP(=O)(O)O [Phytic acid, myo-inositol 1,2,3,4,5,6-hexakis (dihydrogen phosphate)]
Average Fluorescence (n = 3) (human TRPM8; 100 uM test compound alone (direct effect on TRPM8)): 129.38 | % Change from G-180 value (human TRPM8): 23.36% | % Change from G-180 value (human TRPM8; listed as Phytic Acid): 21.20% | % Change from G-180 value (human TRPM8; listed as phytic acid): 23.36% | Average Fluorescence (n = 3) (human TRPM8; [13]): 18382.62 | Average Fluorescence (n = 3) (human TRPM8; pre-treatment with 100 uM test compound for 30 minutes, then 6.25 uM G-180, listed as Phytic Acid): 21178.86 | Modulation of the G-180 activity at TRPM8 (human TRPM8; separate experiments using the same protocol, 100 uM + 6.25 uM G-180): positive modulation was confirmed

O=P([O-])(O)OP(=O)([O-])O.[Na+].[Na+] [Sodium acid pyrophosphate]
% Change from G-180 value (human TRPM8): 3.22% | Average Fluorescence (n = 3) (human TRPM8; [13]): 18075.77

CCCCCCCCCCCCOP(=O)([O-])[O-].[Na+].[Na+] [Sodium lauryl phosphate]
% Change from G-180 value (human TRPM8): 5.10% | Average Fluorescence (n = 3) (human TRPM8; [13]): 18404.83

O=P(O)(O)OP(=O)(O)OP(=O)(O)O [Sodium tripolyphosphate]
% Change from G-180 value (human TRPM8): 5.69% | Average Fluorescence (n = 3) (human TRPM8; [13]): 18508.43

CCNC(=O)C1CC(C)CCC1C(C)C (centres unmarked) [WS-3, N-ethyl-ρ-menthan-3-carboxamide]
Cooling Sensation Score (panelists; [7]): 26.2 | Cooling Sensation Score (panelists; [8]): 25.4 | Cooling Sensation Score (panelists; [9]): 11.3 | Cooling Sensation Score (panelists; [10]): 0 | Cooling Sensation Score (panelists; [11]): 0 | Cooling Sensation Score (panelists; [12]): 0 | Cooling Sensation Score (panelists; 1000 ppm coolant in paste, rinse Ca+2 271 ppm, 0 min.): 23.8 | Cooling Sensation Score (panelists; 1000 ppm coolant in paste, rinse Ca+2 271 ppm, 5 min.): 21.4 | Cooling Sensation Score (panelists; 1000 ppm coolant in paste, rinse Ca+2 271 ppm, 15 min.): 10.8 | Cooling Sensation Score (panelists; 1000 ppm coolant in paste, rinse Ca+2 271 ppm, 30 min.): 2.4 | Cooling Sensation Score (panelists; 1000 ppm coolant in paste, rinse Ca+2 271 ppm, 45 min.): 0 | Cooling Sensation Score (panelists; 1000 ppm coolant in paste, rinse Ca+2 271 ppm, 60 min.): 0 | Cooling Sensation Score (panelists; 1000 ppm coolant in paste, rinse Ca+2 542 ppm, 0 min.): 23.6 | Cooling Sensation Score (panelists; 1000 ppm coolant in paste, rinse Ca+2 542 ppm, 5 min.): 14.0 | Cooling Sensation Score (panelists; 1000 ppm coolant in paste, rinse Ca+2 542 ppm, 15 min.): 0 | Cooling Sensation Score (panelists; 1000 ppm coolant in paste, rinse Ca+2 542 ppm, 30 min.): 0 | Cooling Sensation Score (panelists; 1000 ppm coolant in paste, rinse Ca+2 542 ppm, 45 min.): 0 | Cooling Sensation Score (panelists; 1000 ppm coolant in paste, rinse Ca+2 542 ppm, 60 min.): 0 | Cooling Sensation Score (panelists; [1]): 18.1 | Cooling Sensation Score (panelists; [2]): 29.4 | Cooling Sensation Score (panelists; [3]): 12.7 | Cooling Sensation Score (panelists; [4]): 0 | Cooling Sensation Score (panelists; [5]): 0 | Cooling Sensation Score (panelists; [6]): 0 | Cooling Sensation Score (panelists; 1500 ppm coolant in paste, rinse Ca+2 271 ppm, 0 min.): 20.0 | Cooling Sensation Score (panelists; 1500 ppm coolant in paste, rinse Ca+2 271 ppm, 5 min.): 29.8 | Cooling Sensation Score (panelists; 1500 ppm coolant in paste, rinse Ca+2 271 ppm, 15 min.): 9.5 | Cooling Sensation Score (panelists; 1500 ppm coolant in paste, rinse Ca+2 271 ppm, 30 min.): 1.1 | Cooling Sensation Score (panelists; 1500 ppm coolant in paste, rinse Ca+2 271 ppm, 45 min.): 0 | Cooling Sensation Score (panelists; 1500 ppm coolant in paste, rinse Ca+2 271 ppm, 60 min.): 0 | Cooling Sensation Score (panelists; 1500 ppm coolant in paste, rinse Ca+2 542 ppm, 0 min.): 19.3 | Cooling Sensation Score (panelists; 1500 ppm coolant in paste, rinse Ca+2 542 ppm, 5 min.): 23.7 | Cooling Sensation Score (panelists; 1500 ppm coolant in paste, rinse Ca+2 542 ppm, 15 min.): 5.0 | Cooling Sensation Score (panelists; 1500 ppm coolant in paste, rinse Ca+2 542 ppm, 30 min.): 2.7 | Cooling Sensation Score (panelists; 1500 ppm coolant in paste, rinse Ca+2 542 ppm, 45 min.): 0 | Cooling Sensation Score (panelists; 1500 ppm coolant in paste, rinse Ca+2 542 ppm, 60 min.): 0

CCOC(=O)CNC(=O)C1CC(C)CCC1C(C)C (centres unmarked) [WS-5, N-ethoxycarbonylmethyl-ρ-menthan-3-carboxamide]
Cooling Sensation Score (panelists; [14]): 29.2 | Cooling Sensation Score (panelists; [15]): 22.4 | Cooling Sensation Score (panelists; [16]): 8.3 | Cooling Sensation Score (panelists; [17]): 1.0 | Cooling Sensation Score (panelists; [18]): 0 | Cooling Sensation Score (panelists; [19]): 0 | Cooling Sensation Score (panelists; [20]): 30.8 | Cooling Sensation Score (panelists; [21]): 22.2 | Cooling Sensation Score (panelists; [22]): 8.4 | Cooling Sensation Score (panelists; [23]): 2.2 | Cooling Sensation Score (panelists; [24]): 0 | Cooling Sensation Score (panelists; [25]): 0

CNC(=O)C(C)(C(C)C)C(C)C [WS-23, N,2,3-trimethyl-2-isopropylbutanamide]
Cooling Sensation Score (panelists; [14]): 15.4 | Cooling Sensation Score (panelists; [15]): 7.4 | Cooling Sensation Score (panelists; [16]): 3.0 | Cooling Sensation Score (panelists; [17]): 0 | Cooling Sensation Score (panelists; [18]): 0 | Cooling Sensation Score (panelists; [19]): 0 | Cooling Sensation Score (panelists; [20]): 18.8 | Cooling Sensation Score (panelists; [21]): 4.9 | Cooling Sensation Score (panelists; [22]): 1.0 | Cooling Sensation Score (panelists; [23]): 0 | Cooling Sensation Score (panelists; [24]): 0 | Cooling Sensation Score (panelists; [25]): 0
